Experimental data published in patent US20250312462A1, “PAK1 DEGRADERS AND METHODS OF USE THEREOF” (INSTITUTE FOR CANCER RESEARCH D/B/A THE RESEARCH INSTITUTE …, priority 2022, published 2025).

Experiments:
Assay in all cases: KINOMEscan
[1] = target: CDK11 (Homo sapiens, UniProt Q9BWU1); conditions: read-out: Percent Control
Description: (§1) The kinase engagement assay (KINOMEscan®) was performed by DiscoverX assessing binding abilities toward a set of kinases.

[2] = target: HIPK2 (Homo sapiens, UniProt Q9H2X6); conditions: read-out: Percent Control
Description: as §1

[3] = target: MEK6 (Homo sapiens, UniProt P52564); conditions: read-out: Percent Control
Description: as §1

[4] = target: MAP3K2 (Homo sapiens, UniProt Q9Y2U5); conditions: read-out: Percent Control
Description: as §1

[5] = target: CDK8 (Homo sapiens, UniProt P49336); conditions: read-out: Percent Control
Description: as §1

[6] = target: PIK3CA(M1043I) (Homo sapiens, UniProt P42336, M1043I); conditions: read-out: Percent Control
Description: as §1

[7] = target: ANKK1 (Homo sapiens, UniProt Q8NFD2); conditions: read-out: Percent Control
Description: as §1

[8] = target: MLK1 (Homo sapiens, UniProt P80192); conditions: read-out: Percent Control
Description: as §1

[9] = target: CAMK2B (Homo sapiens, UniProt Q13554); conditions: read-out: Percent Control
Description: as §1

[10] = target: TEC (Homo sapiens, UniProt P42680); conditions: read-out: Percent Control
Description: as §1

[11] = target: PIK3CA(E542K) (Homo sapiens, UniProt P42336, E542K); conditions: read-out: Percent Control
Description: as §1

[12] = target: EPHB4 (Homo sapiens, UniProt P54760); conditions: read-out: Percent Control
Description: as §1

[13] = target: AURKA (Homo sapiens, UniProt O14965); conditions: read-out: Percent Control
Description: as §1

[14] = target: MAP3K15 (Homo sapiens, UniProt Q6ZN16); conditions: read-out: Percent Control
Description: as §1

[15] = test system: FLT3(ITD, F691L); conditions: 10 μM
Description: as §1

[16] = target: EGFR(L747-S752del, P753S) (Homo sapiens, UniProt P00533, DEL747-752/P753S); conditions: read-out: Percent Control
Description: as §1

[17] = target: YSK1 (Homo sapiens, UniProt O00506); conditions: read-out: Percent Control
Description: as §1

[18] = target: RPS6KA5(Kin.Dom.1-N-terminal) (Homo sapiens, UniProt O75582); conditions: read-out: Percent Control
Description: as §1

[19] = target: ACVR2B (Homo sapiens, UniProt Q13705); conditions: read-out: Percent Control
Description: as §1

[20] = target: RIOK2 (Homo sapiens, UniProt Q9BVS4); conditions: read-out: Percent Control
Description: as §1

[21] = target: SIK (Homo sapiens, UniProt P57059); conditions: read-out: Percent Control
Description: as §1

[22] = target: EGFR(T790M) (Homo sapiens, UniProt P00533, T790M); conditions: read-out: Percent Control
Description: as §1

[23] = target: ROCK1 (Homo sapiens, UniProt Q13464); conditions: read-out: Percent Control
Description: as §1

[24] = target: PLK3 (Homo sapiens, UniProt Q9H4B4); conditions: read-out: Percent Control
Description: as §1

[25] = target: ERK2 (Homo sapiens, UniProt P28482); conditions: read-out: Percent Control
Description: as §1

[26] = target: ABL1(H396P)-phosphorylated (Homo sapiens, UniProt P00519, H396P); conditions: read-out: Percent Control
Description: as §1

[27] = target: NEK4 (Homo sapiens, UniProt P51957); conditions: read-out: Percent Control
Description: as §1

[28] = target: GRK1 (Homo sapiens, UniProt Q15835); conditions: read-out: Percent Control
Description: as §1

[29] = target: RIPK2 (Homo sapiens, UniProt O43353); conditions: read-out: Percent Control
Description: as §1

[30] = target: MET (Homo sapiens, UniProt P08581); conditions: read-out: Percent Control
Description: as §1

[31] = target: PIK3CA (Homo sapiens, UniProt P42336); conditions: read-out: Percent Control
Description: as §1

[32] = target: CSNK1G3 (Homo sapiens, UniProt Q9Y6M4); conditions: read-out: Percent Control
Description: as §1

[33] = target: EPHA3 (Homo sapiens, UniProt P29320); conditions: read-out: Percent Control
Description: as §1

[34] = target: PDGFRB (Homo sapiens, UniProt P09619); conditions: read-out: Percent Control
Description: as §1

[35] = target: STK35 (Homo sapiens, UniProt Q8TDR2); conditions: read-out: Percent Control
Description: as §1

[36] = target: MLK2 (Homo sapiens, UniProt Q02779); conditions: read-out: Percent Control
Description: as §1

[37] = target: LZK (Homo sapiens, UniProt O43283); conditions: read-out: Percent Control
Chain of LZK (O43283 whole entry): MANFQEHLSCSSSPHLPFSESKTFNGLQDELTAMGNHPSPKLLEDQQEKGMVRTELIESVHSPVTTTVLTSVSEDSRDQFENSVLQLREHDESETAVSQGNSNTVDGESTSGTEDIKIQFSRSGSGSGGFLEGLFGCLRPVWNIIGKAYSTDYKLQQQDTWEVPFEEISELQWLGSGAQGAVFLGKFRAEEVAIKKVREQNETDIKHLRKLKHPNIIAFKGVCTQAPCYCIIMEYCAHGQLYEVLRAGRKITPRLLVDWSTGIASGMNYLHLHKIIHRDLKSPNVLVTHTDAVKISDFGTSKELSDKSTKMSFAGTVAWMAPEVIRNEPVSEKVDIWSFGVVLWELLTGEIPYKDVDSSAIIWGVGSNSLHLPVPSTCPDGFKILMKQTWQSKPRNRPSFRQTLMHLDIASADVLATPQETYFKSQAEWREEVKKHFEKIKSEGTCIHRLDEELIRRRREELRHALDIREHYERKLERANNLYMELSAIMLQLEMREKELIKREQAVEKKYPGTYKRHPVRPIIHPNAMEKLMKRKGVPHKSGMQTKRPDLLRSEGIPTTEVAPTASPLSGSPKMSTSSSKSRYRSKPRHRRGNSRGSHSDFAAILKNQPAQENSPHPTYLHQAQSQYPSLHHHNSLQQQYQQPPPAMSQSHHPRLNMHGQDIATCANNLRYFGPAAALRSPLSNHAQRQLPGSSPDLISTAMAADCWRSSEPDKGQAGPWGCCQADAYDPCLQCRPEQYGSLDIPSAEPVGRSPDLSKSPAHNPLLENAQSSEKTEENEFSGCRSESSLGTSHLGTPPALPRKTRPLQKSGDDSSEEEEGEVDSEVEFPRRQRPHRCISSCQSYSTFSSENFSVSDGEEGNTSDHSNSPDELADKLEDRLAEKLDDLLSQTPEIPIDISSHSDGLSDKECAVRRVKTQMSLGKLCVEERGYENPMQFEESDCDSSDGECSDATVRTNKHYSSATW
Description: as §1

Chain of PIK3CA(M1043I) (P42336 whole entry M1043I): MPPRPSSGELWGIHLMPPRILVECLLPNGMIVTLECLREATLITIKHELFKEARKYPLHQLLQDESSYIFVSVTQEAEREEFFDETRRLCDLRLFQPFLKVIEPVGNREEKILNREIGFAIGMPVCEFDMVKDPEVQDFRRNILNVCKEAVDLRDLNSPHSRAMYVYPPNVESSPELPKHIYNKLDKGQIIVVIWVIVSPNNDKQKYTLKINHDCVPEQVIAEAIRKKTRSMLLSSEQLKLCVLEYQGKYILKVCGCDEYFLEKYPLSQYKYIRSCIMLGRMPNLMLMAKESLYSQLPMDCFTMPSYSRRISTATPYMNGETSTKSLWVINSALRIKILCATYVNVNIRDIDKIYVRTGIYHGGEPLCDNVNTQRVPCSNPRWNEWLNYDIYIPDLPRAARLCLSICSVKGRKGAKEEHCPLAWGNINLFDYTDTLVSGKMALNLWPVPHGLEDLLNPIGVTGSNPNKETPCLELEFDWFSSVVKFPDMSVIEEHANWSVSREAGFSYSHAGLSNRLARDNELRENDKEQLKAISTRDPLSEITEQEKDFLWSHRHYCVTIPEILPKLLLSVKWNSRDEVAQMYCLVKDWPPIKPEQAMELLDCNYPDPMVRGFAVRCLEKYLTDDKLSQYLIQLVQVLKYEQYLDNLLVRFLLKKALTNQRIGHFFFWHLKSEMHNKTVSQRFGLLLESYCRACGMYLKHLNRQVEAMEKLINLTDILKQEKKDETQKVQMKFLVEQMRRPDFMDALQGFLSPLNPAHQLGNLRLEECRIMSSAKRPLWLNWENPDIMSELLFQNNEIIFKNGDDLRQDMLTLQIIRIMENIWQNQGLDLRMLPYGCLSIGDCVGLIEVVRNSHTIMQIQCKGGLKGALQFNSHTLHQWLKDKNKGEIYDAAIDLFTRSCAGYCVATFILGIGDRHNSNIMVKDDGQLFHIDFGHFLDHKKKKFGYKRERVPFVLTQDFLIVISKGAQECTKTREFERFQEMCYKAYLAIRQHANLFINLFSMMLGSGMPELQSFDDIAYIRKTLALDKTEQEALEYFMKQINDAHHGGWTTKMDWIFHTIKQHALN
Chain of MEK6 (P52564 whole entry): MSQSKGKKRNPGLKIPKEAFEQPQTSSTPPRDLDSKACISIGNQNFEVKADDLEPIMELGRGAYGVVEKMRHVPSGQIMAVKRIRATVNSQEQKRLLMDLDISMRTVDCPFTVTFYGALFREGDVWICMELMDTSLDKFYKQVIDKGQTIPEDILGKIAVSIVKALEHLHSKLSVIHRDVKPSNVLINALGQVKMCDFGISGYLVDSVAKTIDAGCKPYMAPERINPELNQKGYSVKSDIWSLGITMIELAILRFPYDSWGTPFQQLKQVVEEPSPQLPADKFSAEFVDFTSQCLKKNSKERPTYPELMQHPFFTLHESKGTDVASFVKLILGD
Chain of SIK (P57059 whole entry): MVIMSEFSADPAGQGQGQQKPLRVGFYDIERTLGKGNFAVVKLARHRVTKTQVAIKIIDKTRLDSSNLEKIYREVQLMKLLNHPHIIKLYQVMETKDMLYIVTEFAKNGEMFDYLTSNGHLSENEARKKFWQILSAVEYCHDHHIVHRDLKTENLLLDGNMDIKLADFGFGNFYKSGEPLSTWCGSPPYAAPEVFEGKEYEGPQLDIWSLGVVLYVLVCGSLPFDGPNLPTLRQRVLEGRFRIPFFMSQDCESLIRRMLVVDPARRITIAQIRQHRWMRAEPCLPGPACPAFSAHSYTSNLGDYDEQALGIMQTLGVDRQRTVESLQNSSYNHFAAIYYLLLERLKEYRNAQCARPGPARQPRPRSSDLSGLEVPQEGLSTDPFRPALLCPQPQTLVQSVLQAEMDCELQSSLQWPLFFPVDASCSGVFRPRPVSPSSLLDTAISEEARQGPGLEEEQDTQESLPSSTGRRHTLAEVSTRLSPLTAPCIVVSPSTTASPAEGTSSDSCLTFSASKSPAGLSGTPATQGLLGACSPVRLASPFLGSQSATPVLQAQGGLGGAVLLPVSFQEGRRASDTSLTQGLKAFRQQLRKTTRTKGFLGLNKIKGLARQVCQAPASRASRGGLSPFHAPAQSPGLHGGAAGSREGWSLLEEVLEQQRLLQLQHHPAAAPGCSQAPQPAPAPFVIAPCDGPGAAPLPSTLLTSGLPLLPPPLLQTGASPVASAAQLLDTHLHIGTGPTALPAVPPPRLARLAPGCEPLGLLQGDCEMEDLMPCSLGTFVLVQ
Chain of AURKA (O14965 whole entry): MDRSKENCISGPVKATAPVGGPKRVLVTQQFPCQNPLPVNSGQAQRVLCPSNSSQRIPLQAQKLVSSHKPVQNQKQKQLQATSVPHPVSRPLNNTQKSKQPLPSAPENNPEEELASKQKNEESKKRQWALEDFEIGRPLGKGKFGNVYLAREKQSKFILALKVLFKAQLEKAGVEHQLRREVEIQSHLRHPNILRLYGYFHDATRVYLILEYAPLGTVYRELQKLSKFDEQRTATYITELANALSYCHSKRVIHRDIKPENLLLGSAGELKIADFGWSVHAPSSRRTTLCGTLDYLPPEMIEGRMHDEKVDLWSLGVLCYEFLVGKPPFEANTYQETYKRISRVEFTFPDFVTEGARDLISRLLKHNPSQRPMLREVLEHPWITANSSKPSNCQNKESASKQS
Chain of HIPK2 (Q9H2X6 whole entry): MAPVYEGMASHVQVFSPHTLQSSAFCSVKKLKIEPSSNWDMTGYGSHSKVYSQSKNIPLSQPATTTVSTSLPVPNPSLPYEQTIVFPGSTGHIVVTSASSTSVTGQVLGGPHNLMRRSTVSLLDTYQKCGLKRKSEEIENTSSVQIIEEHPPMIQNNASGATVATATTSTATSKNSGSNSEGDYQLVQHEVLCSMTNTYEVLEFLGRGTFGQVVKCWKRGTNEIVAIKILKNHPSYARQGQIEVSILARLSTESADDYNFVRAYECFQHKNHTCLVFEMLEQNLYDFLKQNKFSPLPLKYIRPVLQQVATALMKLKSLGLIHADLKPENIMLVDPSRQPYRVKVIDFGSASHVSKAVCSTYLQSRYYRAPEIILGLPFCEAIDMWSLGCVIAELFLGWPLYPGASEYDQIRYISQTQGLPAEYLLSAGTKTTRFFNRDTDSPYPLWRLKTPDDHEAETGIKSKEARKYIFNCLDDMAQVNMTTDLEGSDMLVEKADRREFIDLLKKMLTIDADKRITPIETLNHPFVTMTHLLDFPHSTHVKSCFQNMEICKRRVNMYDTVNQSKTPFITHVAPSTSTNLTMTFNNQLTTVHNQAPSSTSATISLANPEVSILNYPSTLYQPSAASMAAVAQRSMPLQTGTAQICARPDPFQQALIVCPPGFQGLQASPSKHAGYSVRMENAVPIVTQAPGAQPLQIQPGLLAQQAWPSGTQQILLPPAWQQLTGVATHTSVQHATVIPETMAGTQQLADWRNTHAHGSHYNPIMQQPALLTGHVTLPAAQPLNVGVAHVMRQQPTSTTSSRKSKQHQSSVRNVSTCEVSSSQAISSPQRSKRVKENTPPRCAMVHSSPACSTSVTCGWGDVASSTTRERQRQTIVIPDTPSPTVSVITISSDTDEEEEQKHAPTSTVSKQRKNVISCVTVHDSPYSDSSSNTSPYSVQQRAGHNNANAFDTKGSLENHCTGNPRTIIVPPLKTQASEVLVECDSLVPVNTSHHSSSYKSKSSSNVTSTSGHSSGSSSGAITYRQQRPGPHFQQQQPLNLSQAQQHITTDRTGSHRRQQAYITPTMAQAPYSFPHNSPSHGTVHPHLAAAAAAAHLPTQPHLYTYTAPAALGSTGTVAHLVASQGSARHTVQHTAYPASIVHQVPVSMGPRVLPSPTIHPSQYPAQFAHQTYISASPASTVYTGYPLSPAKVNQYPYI
Chain of RPS6KA5(Kin.Dom.1-N-terminal) (O75582 49-318 limits assumed): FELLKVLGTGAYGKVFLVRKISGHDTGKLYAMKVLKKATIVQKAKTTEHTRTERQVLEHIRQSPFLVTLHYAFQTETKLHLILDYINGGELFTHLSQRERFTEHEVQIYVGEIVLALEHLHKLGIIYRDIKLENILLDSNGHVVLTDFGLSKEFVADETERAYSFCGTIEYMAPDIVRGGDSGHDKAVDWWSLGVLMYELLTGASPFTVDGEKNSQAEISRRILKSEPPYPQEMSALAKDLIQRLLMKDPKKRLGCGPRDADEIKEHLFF
Chain of PIK3CA (P42336 whole entry): as the sequence (P42336 whole entry M1043I) above, with I1043M counted along it

For O=C1CCC(N2C(=O)c3cccc(NCCCCCCCCNC(=O)N4CC[C@H](NC5=Nc6cc(F)ccc6N(CC(F)F)c6ccc(Cl)cc65)C4)c3C2=O)C(=O)N1 (stereo partly drawn) [BJG-05-039, (3S)-3-((2-Chloro-5-(2,2-difluoroethyl)-8-fluoro-5H-dibenzo[b,e][1,4]diazepin-11-yl)amino)-N-(8-((2-(2,6-dioxopiperidin-3-yl)-1,3-dioxoisoindolin-4-yl)amino)octyl)pyrrolidine-1-carboxamide], the remaining binding at 10 µM [1] was 85%, the remaining binding at 10 µM [2] was 100% and the remaining binding at 10 µM [3] was 86%. For the same molecule, the remaining binding at 10 µM [4] was 76%, the remaining binding at 10 µM [5] was 80% and the remaining binding at 10 µM [6] was 100%. The remaining binding at 10 µM [7] was 87%, the remaining binding at 10 µM [8] was 83% and the remaining binding at 10 µM [9] was 46%. The remaining binding at 10 µM [10] was 82%, the remaining binding at 10 µM [11] was 91% and the remaining binding at 10 µM [12] was 91%. The remaining binding at 10 µM [13] was 100%, the remaining binding at 10 µM [14] was 99% and the “Percent Control” value [15] was 94. The remaining binding at 10 µM [16] was 82%, the remaining binding at 10 µM [17] was 83% and the remaining binding at 10 µM [18] was 94%. For the same molecule, the remaining binding at 10 µM [19] was 46%, the remaining binding at 10 µM [20] was 99% and the remaining binding at 10 µM [21] was 95%. For the same molecule, the remaining binding at 10 µM [22] was 97%, the remaining binding at 10 µM [23] was 100% and the remaining binding at 10 µM [24] was 99%. For the same molecule, the remaining binding at 10 µM [25] was 85%, the remaining binding at 10 µM [26] was 100% and the remaining binding at 10 µM [27] was 99%. It also gave a remaining binding at 10 µM [28] of 89%, a remaining binding at 10 µM [29] of 67% and a remaining binding at 10 µM [30] of 68%. It also gave a remaining binding at 10 µM [31] of 60%, a remaining binding at 10 µM [32] of 63% and a remaining binding at 10 µM [33] of 47%. The remaining binding at 10 µM [34] was 86%, the remaining binding at 10 µM [35] was 83% and the remaining binding at 10 µM [36] was 97%. It also gave a remaining binding at 10 µM [37] of 82%.
